In patent US9453835B2, “Method for screening a modulator of a TMEM16 family member” (Kyoto University, priority 2012, dated 2016):

Columns and labels:
[1] = system: TMEM16D transformants of TMEM16F^−/− IFETs; assay: Internalization of NBD-PC and NBD-GalCer by TMEM16D transformants; type: cell-based, mouse; details: 15° C.
Experimental: (§1) A and C, The ability of TMEM16 family members to internalize NBD-PC and NBD-GalCer. TMEM16F^−/− IFETs transformed with the indicated TMEM16 family member were treated at 15° C. with (+) or without (−) 250 nM A23187 in the presence of 100 nM NBD-PC for 4 min (A) or 250 nM NBD-GalCer for 5 min (C), and the internalized, or BSA-non extractable NBD-PC or NBD-GelCer, was quantified by FACSAria, and expressed in MFI.
B, Requirement of Ca^2+ for the constitutive internalization of NBD-PC by TMEM16D. The TMEM16D transformants of TMEM16F^−/− IFETs were treated with 40 μM BAPTA-AM for 30 min in Ca^2+-free RPMI, and incubated at 15° C. for 8 min in HBSS containing 1 mM CaCl2 and 100 nM NBD-PC. The internalized NBD-PC was determined as above, and expressed as percentage of the internalized NBD-PC obtained without BAPTA-AM treatment.
(§2) Cells (10^6) were stimulated at 15° C. with 250 nM A23187 in 1 ml Hank's Balanced Salt Solution (HBSS) (Gibco, Billings, Mont.) containing 1 mM CaCl2, with a fluorescent probe, 100 nM 1-oleoyl-2-{6-[(7-nitro-2-1,3-benzoxadiazol-4-yl)amino]hexanoyl}-sn-glycero-3-phosphocholine (NBD-PC) (Avanti Polar Lipids, Alabaster, Ala.), or 250 nM N-[6-[(7-nitro-2-1,3-benzoxadiazol-4-yl)amino]hexanoyl]-D-galactosyl-β1-1′-sphingosine (C6-NBD galactosyl ceramide or NBD-GalCer) (Avanti Polar Lipids). Aliquots (150 μl) were mixed with 150 μl HBSS containing 5 mg/ml fatty-acid free BSA (Sigma-Aldrich) and 500 nM Sytoxblue (Molecular Probes, Eugene, Oreg.), and analyzed by FACSAria.

TMEM16F^flox/flox IFETs [2] = assay: Ca2+-induced PS exposure (Cy5-Annexin V binding, flow cytometry); type: cell-based, mouse; details: 20° C., 3.0 μM A23187
Experimental: (§3) A, Ca^2+ ionophore induced PS exposure. TMEM16F^flox/flox and TMEM16F^−/− IFETs were treated at 20° C. with 3.0 μM A23187 in the presence of Cy5-labeled Annexin V. Annexin V-binding to the cells was monitored by flow cytometry for 10 min, and expressed in MFI (mean fluorescence intensity).
(§4) The Ca^2+-induced PS exposure were examined as described (20). In brief, 5×10^5 cells were stimulated at 20° C. with 3.0 μM A23187 in 500 μl of 10 mM Hepes-NaOH buffer (pH 7.4) containing 140 mM NaCl, 2.5 mM CaCl2 and 5 μg/ml Propidium Iodide (PI), and 1000-fold-diluted Cy5-labeled Annexin V (Bio Vision, Milpitas, Calif.), and applied to the injection chamber of a FACSAria (BD Bioscience, Franklin Lakes, N.J.) set at 20° C.

TMEM16F^−/− IFETs = assay: as above; type: cell-based, mouse; details: 20° C., 3.0 μM A23187
Experimental: as §3, §4

TMEM16F^flox/flox IFETs [3] = assay: Internalization of NBD-PC and NBD-GalCer; type: cell-based, mouse; details: 15° C., 250 nM A23187
Experimental: B and C, Ca^2+ ionophore induced lipid internalization. TMEM16F^flox/flox and TMEM16F^−/− IFETs were treated at 15° C. with 250 nM A23187 in the presence of 100 nM NBD-PC (B) or 250 nM NBD-GalCer (C). Using aliquots of the reaction mixture, the BSA-non extractable level of NBD-PC or NBD-GalCer in the SytoxBlue-negative population was determined at the indicated time by FACSAria, and expressed in MFI.
as §2

TMEM16F^flox/flox IFETs [4] = assay: Ca2+-induced PE exposure (binding of RO-peptide); type: cell-based, mouse; details: data not shown
[5] = system: IFETs expressing TMEM16A, 16B, 16E, 16H, or 16K; assay: Internalization of NBD-PC by TMEM16 transformants without scramblase activity; type: cell-based, mouse; details: 250 nM A23187
Experimental: as §1, §2

[6] = system: IFETs expressing mouse Fas; assay: FasL-induced apoptosis; type: cell-based
Experimental: E-G, FasL-induced apoptosis. Fas-expressing TMEM16F^flox/flox and TMEM16F^−/− IFETs were treated at 37° C. for 2 h with 60 units/ml FasL in the absence or presence of 50 μM Q-VD-OPh. In E, the cells were permeabilized with 90% methanol, and stained with rabbit anti-active caspase 3 followed by incubation with Alexa 488-labeled goat anti-rabbit IgG. In F, cells were stained with Cy5-labeled Annexin V and PI and analyzed by FACSAria. In G, cells were analyzed by FACSAria before and after FasL treatment; the FSC and SSC profiles are shown.
Apoptosis was induced with FasL as described (25). In brief, IFETs expressing mouse Fas were treated with 60 units/ml FasL at 37° C. for 2 h, and PS exposure was determined by flow cytometry with Cy5-Annexin V. To detect activated caspase 3, cells were fixed at 37° C. for 10 min in PBS containing 1% paraformaldehyde, permeabilized with 90% methanol at −20° C., and stained with rabbit mAb against active caspase 3 (Cell Signaling, Danvers, Mass.). Cells were then incubated with Alexa 488-labeled goat anti-rabbit IgG (Invitrogen), and analyzed by FACSAria.

[7] = TMEM16F^flox/flox and TMEM16F^−/− IFETs, to the same extent

## CNc1ccc2oc(C[C@H]3O[C@@]4(CC[C@H]3C)O[C@H]([C@H](C)C(=O)c3ccc[nH]3)[C@H](C)C[C@H]4C)nc2c1C(=O)O [A23187]
[1]; 250 nM A23187, 100 nM NBD-PC, 4 min, versus constitutive uptake
  NBD-PC internalization: strongly enhanced
[1]; 250 nM A23187, 250 nM NBD-GalCer, 5 min, versus constitutive uptake
  NBD-GalCer uptake: enhanced
TMEM16F^flox/flox IFETs [2]
  PS exposure: quickly exposed PS
TMEM16F^−/− IFETs
  PS exposure: completely absent
TMEM16F^flox/flox IFETs [3]
  internalization of NBD-PC and NBD-GalCer: internalized NBD-PC and NBD-GalCer
TMEM16F^flox/flox IFETs [4]
  PE-exposure: caused rapid PE-exposure
[5]
  NBD-PC uptake: did not induce

## CC(=O)OCOC(=O)CN(CC(=O)OCOC(C)=O)c1ccccc1OCCOc1ccccc1N(CC(=O)OCOC(C)=O)CC(=O)OCOC(C)=O [BAPTA-AM]
[1]; pre-treatment 40 μM BAPTA-AM 30 min, 100 nM NBD-PC, 8 min
  NBD-PC uptake observed without Ca2+-ionophore: reduced

B1: FasL: Leucine-zipper-tagged human FasL produced in COS7 cells (protein)
chain: QIGHPSPPPEKKELRKVAHLTGKSNSRSMPLEWEDTYGIVLLSGVKYKKGGLVINETGLYFVYSKVYFRGQSCNNLPLSHKVYMRNSKYPQDLVMMEGKMMSYCTTGQMWARSSYLGAVFNLTSADHLYVNVSELSLVNFEESQTFFGLYKL
modifications: left off: small tags and cut ends
notes: Leucine-zipper-tagged human FasL produced in COS7 cells
[6]; 60 units/ml FasL, 37° C., 2 h
  caspase 3 activation: efficiently activated
[6]; 60 units/ml FasL, 37° C., 2 h, Cy5-Annexin V
  PS exposure: quickly responded by exposing PS
[6]; [7]
  cell size (forward-scattered light, FSC): decreased
  cellular granularity (side-scattered light, SSC): increased
